Where two headings read alike, the source gives them in different places. Where a SMILES comes first, the peptide text is derived from it. Where no end group is shown, it is not given here. [ ]: non-standard residue; d: D form. Aib = CC(C)(N)C(=O)O
Legend:
rats [1] = test: Protracted action: time course of plasma 11-OHCS level after i.m. or i.v. injection; type: in vivo; conditions: rats 100-120 g, 5 μg/rat intramuscularly or intravenously
Method: The protracted action of the present polypeptides, e.g., [Aib^1,Lys^17,18,19 ]--ACTH(1-19)--NH2, was studied using rats weighing 100-120 g. Synthetic human ACTH, Cortrosyn--Z^R (zinc complex suspension of ACTH(1-24)--OH)and [Gly^1 ]--ACTH(1-18)--NH2 were used for comparison. The petides were intramuscularly or intravenously injected into rats at a dose of 5 μg/rat, and then the production of 11-hydroxycorticosteroids (11-OHCS) was determined. Time course of 11-OHCS level in the plasma when the peptides were administered intramuscularly and intravenously is shown in FIG. 2, respectively. […] Cortrosyn-Z is the only ACTH preparation which has been used for therapeutical purpose, though it has rather strong melanocyte stimulating activity (c.f. Table 1). […] In FIG. 2, Cortrosyn-Z (suspension of a zinc complex of ACTH(1-24)--OH) is not shown, because the suspension cannot be used through intravenous route.

hypophysectomized rat [2] = tested on: hypophysectomized rat
hypophysectomized rat [3] = tested on: hypophysectomized rat; remark: listed apart in the source
Method: The adrenal-stimulating activity by the intramuscular administration to hypophysectomized rat was also determined, where a peptide preparation was injected into the thigh muscle and a blood sample was collected from the abdominal aorta 30 minutes after the injection. Throughout the experiment, the USP Corticotropin Reference Standard was used as a standard and the production of 11-hydroxycorticosteroids was determined by the fluorophotometric method of Peterson [J. Biol. Chem. 225 25 (1975)].

rats [4] = conditions: i.m. for 2 days
Method: The effect on adrenal growth and thymus involution was determined in the following manner: peptides were intramuscularly injected into rats weighing 100-150 g at a dose of 20μg and 100 μg/rat/day for 2 days, respectively. The rats were then submitted to autopsy 24 hours after the last injection, and then the adrenal and thymus were weighed respectively.

Method for melanocyte: The in vivo melanocyte-stimulating activity was determined according to the method of A. Tanaka described in Endocrinol.

| Molecule | Protracted adrenal-stimulating action (time course of plasma 11-OHCS level) (rats [1]) | Adrenal-stimulating activity i.v. (relative potency) (hypophysectomized rat [2]; rat, in vivo, iv) | Adrenal-stimulating activity i.m. (relative potency) (hypophysectomized rat [3]; rat, in vivo) | Melanocyte-stimulating activity in vivo (b), relative potency (melanocyte) | Protracted adrenal-stimulating action (time course of plasma 11-OHCS level) (rats [1]; Lys^17,18,19 ]--ACTH(1-19)--NH2) | effects on adrenal growth and thymus involution (in words) (rats [4]) | Adrenal-stimulating activity i.v. (relative potency) (hypophysectomized rat [2]; hypophysectomized rat, femoral vein injection, blood sample 30 minutes after injection, USP Corticotropin Reference Standard as standard) | Adrenal-stimulating activity i.m. (relative potency) (hypophysectomized rat [3]; hypophysectomized rat, thigh muscle injection, blood sample 30 minutes after injection, USP Corticotropin Reference Standard as standard) |
| --- | --- | --- | --- | --- | --- | --- | --- | --- |
| CSCC[C@H](NC(=O)[C@H](CO)NC(=O)[C@H](Cc1ccc(O)cc1)NC(=O)C(C)(C)N)C(=O)N[C@@H](CCC(=O)O)C(=O)N[C@@H](Cc1c[nH]cn1)C(=O)N[C@@H](Cc1ccccc1)C(=O)N[C@@H](CCCNC(=N)N)C(=O)N[C@@H](Cc1c[nH]c2ccccc12)C(=O)NCC(=O)N[C@@H](CCCCN)C(=O)N1CCC[C@H]1C(=O)N[C@H](C(=O)NCC(=O)N[C@@H](CCCCN)C(=O)N[C@@H](CCCCN)C(=O)N[C@@H](CCCCN)C(=O)N[C@@H](CCCCN)C(=O)N[C@@H](CCCCN)C(N)=O)C(C)C [[Aib^1, Lys^17,18,19]--ACTH(1-19)-- NH2] (H-[Aib]YSMEHFRWGKPVGKKKKK-NH2) | protracted to almost the same extent as that produced by Cortrosyn-Z | – | – | – | – | – | – | – |
| CSCC[C@H](NC(=O)[C@H](CO)NC(=O)[C@H](Cc1ccc(O)cc1)NC(=O)C(C)(C)N)C(=O)N[C@@H](CCC(=O)O)C(=O)N[C@@H](Cc1c[nH]cn1)C(=O)N[C@@H](Cc1ccccc1)C(=O)N[C@@H](CCCNC(=N)N)C(=O)N[C@@H](Cc1c[nH]c2ccccc12)C(=O)NCC(=O)N[C@@H](CCCCN)C(=O)N1CCC[C@H]1C(=O)N[C@H](C(=O)NCC(=O)N[C@@H](CCCCN)C(=O)N[C@@H](CCCCN)C(=O)N[C@@H](CCCCN)C(=O)N[C@@H](CCCCN)C(=O)N[C@@H](CCCCN)C(=O)N[C@@H](CCCCN)C(N)=O)C(C)C [[Aib^1,Lys^17,18,19,20]-ACTH(1-20)-NH2, Aib--Tyr--Ser--Met--Glu--His--Phe--Arg--Trp--Gly--Lys--Pro--Val--Gly--Lys- -Lys--Lys--Lys--Lys--Lys--NH2] (H-[Aib]YSMEHFRWGKPVGKKKKKK-NH2) | – | 6.3 | 10.7 | 0.15 | – | – | – | – |
| CSCC[C@H](NC(=O)[C@H](CO)NC(=O)[C@H](Cc1ccc(O)cc1)NC(=O)C(C)(C)N)C(=O)N[C@@H](CCC(=O)O)C(=O)N[C@@H](Cc1c[nH]cn1)C(=O)N[C@@H](Cc1ccccc1)C(=O)N[C@@H](CCCNC(=N)N)C(=O)N[C@@H](Cc1c[nH]c2ccccc12)C(=O)NCC(=O)N[C@@H](CCCCN)C(=O)N1CCC[C@H]1C(=O)N[C@H](C(=O)NCC(=O)N[C@@H](CCCCN)C(=O)N[C@@H](CCCCN)C(=O)N[C@@H](CCCCN)C(=O)N[C@@H](CCCCN)C(=O)N[C@@H](CCCCN)C(N)=O)C(C)C [[Aib^1,Lys^17,18,19]-ACTH(1-19)-NH2, Aib--Tyr--Ser--Met--Glu--His--Phe--Arg--Trp--Gly--Lys--Pro--Val--Gly--Lys- -Lys--Lys--Lys--Lys--NH2] (H-[Aib]YSMEHFRWGKPVGKKKKK-NH2) | – | 5.7 | 7.8 | 0.11 | very protracted action | – | – | – |
| CSCC[C@H](NC(=O)[C@H](CO)NC(=O)[C@H](Cc1ccc(O)cc1)NC(=O)C(C)(C)N)C(=O)N[C@@H](CCC(=O)O)C(=O)N[C@@H](Cc1c[nH]cn1)C(=O)N[C@@H](Cc1ccccc1)C(=O)N[C@@H](CCCNC(=N)N)C(=O)N[C@@H](Cc1c[nH]c2ccccc12)C(=O)NCC(=O)N[C@@H](CCCCN)C(=O)N1CCC[C@H]1C(=O)N[C@H](C(=O)NCC(=O)N[C@@H](CCCCN)C(=O)N[C@@H](CCCCN)C(=O)N[C@@H](CCCCN)C(=O)N[C@@H](CCCCN)C(N)=O)C(C)C [[Aib^1,Lys^17,18]-ACTH(1-18)-NH2, [Aib^1,Lys^17,18]--ACTH(1-18)--NH2, reference compound] (H-[Aib]YSMEHFRWGKPVGKKKK-NH2) | – | 9.3 | 9.4 | 0.82 | – | – | – | – |
| CSCC[C@H](NC(=O)[C@H](CO)NC(=O)[C@H](Cc1ccc(O)cc1)NC(=O)C(C)(C)N)C(=O)N[C@@H](CCC(=O)O)C(=O)N[C@@H](Cc1c[nH]cn1)C(=O)N[C@@H](Cc1ccccc1)C(=O)N[C@@H](CCCNC(=N)N)C(=O)N[C@@H](Cc1c[nH]c2ccccc12)C(=O)NCC(=O)N[C@@H](CCCCN)C(=O)N1CCC[C@H]1C(=O)N[C@H](C(=O)NCC(=O)N[C@@H](CCCCN)C(=O)N[C@@H](CCCCN)C(=O)N[C@@H](CCCNC(=N)N)C(=O)N[C@@H](CCCNC(=N)N)C(N)=O)C(C)C [[Aib^1]-ACTH(1-18)-NH2, [Aib^1]--ACTH(1-18)--NH2, reference compound] (H-[Aib]YSMEHFRWGKPVGKKRR-NH2) | – | 4.1 | 9.9 | 1.00 | – | – | – | – |
| GYSMEHFRWGKPVGKKRR-NH2 [[Gly^1]-ACTH(1-18)-NH2, [Gly^1]--ACTH(1-18)--NH2, reference compound] | – | 1.0 | 1.0 | 0.11 | – | very weak | – | – |
| Native ACTH: native corticotropin (ACTH), native hormone used for comparison (SYSMEHFRWGKPVGKKRRPVKVYPNGAEDESAEAFPLEF; Corticotropin; UniProt P01189 138-176, looked up) | – | – | – | – | – | very weak | 1.0 | 4.0 |
